Here are results for 26 compounds from US20130029962A1, “Substituted Heteroaromatic Pyrazole-Containing Carboxamide and Urea Compounds as Vanilloid Receptor Ligands” (Gruenenthal GmbH, priority 2011, published 2013).

In the assay the target is T1, vanilloid receptor 1 (VR1/TRPV1 receptor) (Homo sapiens, UniProt Q8NER1).
T1 construct: expressed in transfected cells; host or cells: CHO K1
Kind of assay: Functional testing on the vanilloid receptor 1 (VR1/TRPV1): FLIPR Ca2+ influx assay, displacement of capsaicin. The format is cell-based, human being. Also noted: key to mode of action at VR1/TRPV1 (AG, pAG, NE), Cap: AG=agonist; NE=no effect; pAG=partial agonist. The note with it: for inhibition at 5 µM: 5 μM compound, read-out: inhibition (as a percentage) at the concentration after @, Cap; for inhibition at 5 µM / mode of action at VR1/TRPV1 (AG, pAG, NE), Cap: capsaicin (Cap), human being; for Ki: capsaicin (Cap) as stimulus, Ki from IC50 by Cheng-Prusoff, read-out: (f) Ki (human being) [nM] Cap. On the procedure:
Furthermore, preference may be given to compounds according to the invention that cause a 50 percent displacement of capsaicin, which is present at a concentration of 100 nM, in a FLIPR assay with CHO K1 cells which were transfected with the human VR1 gene at a concentration of less than 2,000 nM, preferably less than 1,000 nM, particularly preferably less than 300 nM, most particularly preferably less than 100 nM, even more preferably less than 75 nM, additionally preferably less than 50 nM, most preferably less than 10 nM.
In the process, the Ca^2+ influx is quantified in the FLIPR assay with the aid of a Ca^2+-sensitive dye (type Fluo-4, Molecular Probes Europe BV, Leiden, the Netherlands) in a fluorescent imaging plate reader (FLIPR, Molecular Devices, Sunnyvale, USA), as described hereinafter. […]
The number of cells in the suspension is set to 3×10^5 per mL and 150 μL of this suspension are in each case introduced into a recess in the cell culture plates coated as described hereinbefore. In the incubator the plates are left for two to three days at 37° C., 5% by volume of CO2 and 95% relative humidity. Subsequently, the cells are loaded with 2 μM of Fluo-4 and 0.01% by volume of Pluronic F127 (Molecular Probes Europe BV, Leiden, the Netherlands) in HBSS buffer (Hank's buffered saline solution, Gibco Invitrogen GmbH, Karlsruhe, Germany) for 30 min at 37° C., washed 3 times with HBSS buffer and after further incubation for 15 minutes at room temperature used for Ca^2+ measurement in a FLIPR assay. The Ca^2+-dependent fluorescence is in this case measured before and after the addition of substances (λex=488 nm, λem=540 nm). Quantification is carried out by measuring the highest fluorescence intensity (FC, fluorescence counts) over time.
The FLIPR protocol consists of 2 substance additions. First the compounds to be tested (10 μM) are pipetted onto the cells and the Ca^2+ influx is compared with the control (capsaicin 10 μM). This provides the result in % activation based on the Ca^2+ signal after the addition of 10 μM of capsaicin (CP). After 5 minutes' incubation, 100 nM of capsaicin are applied and the Ca^2+ influx is also determined. Desensitising agonists and antagonists lead to suppression of the Ca^2+ influx. The % inhibition is calculated compared to the maximum achievable inhibition with 10 μM of capsazepine. Triple analyses (n=3) are carried out and repeated in at least 3 independent experiments (N=4).
Starting from the percentage displacement caused by different concentrations of the compounds to be tested of general formula I, IC50 inhibitory concentrations which cause a 50-percent displacement of capsaicin were calculated. Ki values for the test substances were obtained by conversion by means of the Cheng-Prusoff equation (Cheng, Prusoff; Biochem. Pharmacol. 22, 3099-3108, 1973).
The affinity of the compounds according to the invention for the vanilloid receptor 1 (VR1/TRPV1 receptor) was determined as described above (pharmacological method I).

T1 sequence (Q8NER1 whole entry): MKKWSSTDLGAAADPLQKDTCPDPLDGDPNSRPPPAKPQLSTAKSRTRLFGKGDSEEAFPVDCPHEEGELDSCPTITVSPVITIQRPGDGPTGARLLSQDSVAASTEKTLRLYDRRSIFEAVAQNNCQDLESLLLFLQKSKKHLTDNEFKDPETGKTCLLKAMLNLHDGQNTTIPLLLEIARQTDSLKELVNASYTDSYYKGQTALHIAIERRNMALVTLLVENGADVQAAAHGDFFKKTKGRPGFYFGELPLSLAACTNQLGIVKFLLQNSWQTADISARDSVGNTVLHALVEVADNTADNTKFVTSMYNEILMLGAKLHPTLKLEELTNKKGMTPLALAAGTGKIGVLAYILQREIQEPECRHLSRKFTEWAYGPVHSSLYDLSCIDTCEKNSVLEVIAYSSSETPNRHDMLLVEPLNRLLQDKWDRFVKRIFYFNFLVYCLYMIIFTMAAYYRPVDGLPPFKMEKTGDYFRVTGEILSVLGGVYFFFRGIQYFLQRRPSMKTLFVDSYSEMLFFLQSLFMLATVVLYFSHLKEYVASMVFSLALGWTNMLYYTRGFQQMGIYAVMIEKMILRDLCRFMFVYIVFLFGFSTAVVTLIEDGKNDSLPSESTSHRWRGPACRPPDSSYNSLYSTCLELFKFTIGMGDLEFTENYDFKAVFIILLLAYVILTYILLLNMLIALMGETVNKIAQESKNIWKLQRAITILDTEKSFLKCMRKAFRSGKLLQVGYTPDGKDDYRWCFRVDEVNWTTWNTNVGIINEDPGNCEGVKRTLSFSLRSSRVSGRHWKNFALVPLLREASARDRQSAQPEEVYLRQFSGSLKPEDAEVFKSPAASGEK

Turning to `O=C(Cc1ccccn1)NCc1cc(C(F)(F)F)nn1-c1cccc(Cl)c1` [Example 1, N-((1-(3-chlorophenyl)-3-(trifluoromethyl)-1H-pyrazol-5-yl)methyl)-2-(pyridin-2-yl)acetamide], the inhibition at 5 µM turned out to be 31%.
For `CC(C(=O)NCc1cc(C(C)(C)C)nn1-c1cccc(Cl)c1)c1ccccn1` (centres unmarked) [Example 2, N-((3-tert-butyl-1-(3-chlorophenyl)-1H-pyrazol-5-yl)methyl)-2-(pyridin-2-yl)propanamide], the inhibition at 5 µM worked out at 89% and the “mode of action at VR1/TRPV1 (AG, pAG, NE), Cap” value (shortened to “mode of action at VR1/TRPV1”) is given as “AG”.
For the compound `CC(C(=O)NCc1cc(C(F)(F)F)nn1-c1cccc(Cl)c1)c1ccccn1` (centres unmarked) [Example 3, N-((1-(3-chlorophenyl)-3-(trifluoromethyl)-1H-pyrazol-5-yl)methyl)-2-(pyridin-2-yl)propanamide], the inhibition at 5 µM came to 35%.
`CC(C)(C)c1cc(CNC(=O)Nc2ccccn2)n(-c2cccc(Cl)c2)n1` [Example 4, 1-((3-tert-butyl-1-(3-chlorophenyl)-1H-pyrazol-5-yl)methyl)-3-(pyridin-2-yl)urea]: the Ki amounted to 47 nM.
Turning to `O=C(NCc1cc(C(F)(F)F)nn1-c1cccc(Cl)c1)Nc1ccccn1` [Example 5, 1-((1-(3-chlorophenyl)-3-(trifluoromethyl)-1H-pyrazol-5-yl)methyl)-3-(pyridin-2-yl)urea], the inhibition at 5 µM was 29%.
As to `CC(C)(C)c1cc(CNC(=O)Cc2cccnc2)n(-c2cccc(Cl)c2)n1` [Example 6, N-((3-tert-butyl-1-(3-chlorophenyl)-1H-pyrazol-5-yl)methyl)-2-(pyridin-3-yl)acetamide], the inhibition at 5 µM was 89% and the “mode of action at VR1/TRPV1” value is recorded as “AG”.
Turning to `O=C(Cc1cccnc1)NCc1cc(C(F)(F)F)nn1-c1cccc(Cl)c1` [Example 7, N-((1-(3-chlorophenyl)-3-(trifluoromethyl)-1H-pyrazol-5-yl)methyl)-2-(pyridin-3-yl)acetamide], the inhibition at 5 µM worked out at 51%.
Take `CC(C(=O)NCc1cc(C(F)(F)F)nn1-c1cccc(Cl)c1)c1cccnc1` (centres unmarked) [Example 8, N-((1-(3-chlorophenyl)-3-(trifluoromethyl)-1H-pyrazol-5-yl)methyl)-2-(pyridin-3-yl)propanamide]: the inhibition constant Ki amounted to 13 nM.
On to `O=C(NCc1cc(C(F)(F)F)nn1-c1cccc(Cl)c1)Nc1cccnc1` [Example 9, 1-((1-(3-chlorophenyl)-3-(trifluoromethyl)-1H-pyrazol-5-yl)methyl)-3-(pyridin-3-yl)urea], for which the inhibition at 5 µM is 72% and the “mode of action at VR1/TRPV1” value was “AG”.
The corresponding values for `CC(C)(C)c1cc(CNC(=O)Cc2ccncc2)n(-c2cccc(Cl)c2)n1` [Example 10, N-((3-tert-butyl-1-(3-chlorophenyl)-1H-pyrazol-5-yl)methyl)-2-(pyridin-4-yl)acetamide] are 90% and “AG”.
The corresponding values for `O=C(Cc1ccncc1)NCc1cc(C(F)(F)F)nn1-c1cccc(Cl)c1` [Example 11, N-((1-(3-chlorophenyl)-3-(trifluoromethyl)-1H-pyrazol-5-yl)methyl)-2-(pyridin-4-yl)acetamide] are 79% and “AG”.
The corresponding values for `O=C(NCc1cc(C(F)(F)F)nn1-c1cccc(Cl)c1)Nc1ccncc1` [Example 12, 1-((1-(3-chlorophenyl)-3-(trifluoromethyl)-1H-pyrazol-5-yl)methyl)-3-(pyridin-4-yl)urea] are 85% and “AG”.
For the compound `O=C(Cc1ccncn1)NCc1cc(C(F)(F)F)nn1-c1cccc(Cl)c1` [Example 13, N-((1-(3-chlorophenyl)-3-(trifluoromethyl)-1H-pyrazol-5-yl)methyl)-2-(pyrimidin-4-yl)acetamide], the inhibition at 5 µM is 30%.
As for `CC(C)(C)c1cc(CNC(=O)Cc2cnccn2)n(-c2cccc(Cl)c2)n1` [Example 14, 1N-((3-tert-butyl-1-(3-chlorophenyl)-1H-pyrazol-5-yl)methyl)-2-(pyrazin-2-yl)acetamide], the “mode of action at VR1/TRPV1” value is listed as “pAG”.
On the same count and under the same terms, in the case of `O=C(NCc1cc(C(F)(F)F)nn1-c1cccc(Cl)c1)Nc1ccnnc1` [Example 15, 1-((1-(3-chlorophenyl)-3-(trifluoromethyl)-1H-pyrazol-5-yl)methyl)-3-(pyridazin-4-yl)urea] it was “AG”.
Turning to `O=C(Cc1cncnc1)NCc1cc(C(F)(F)F)nn1-c1cccc(Cl)c1` [Example 16, N-((1-(3-chlorophenyl)-3-(trifluoromethyl)-1H-pyrazol-5-yl)methyl)-2-(pyrimidin-5-yl)acetamide], the Ki was found to be 77 nM.
The same measure, in the same setting: next, `O=C(Cc1ccc(Cl)nc1)NCc1cc(C(F)(F)F)nn1-c1cccc(Cl)c1` [Example 17, N-((1-(3-chlorophenyl)-3-(trifluoromethyl)-1H-pyrazol-5-yl)methyl)-2-(6-chloropyridin-3-yl)acetamide]: 29 nM; `O=C(NCc1cc(C(F)(F)F)nn1-c1cccc(Cl)c1)Nc1cncc(F)c1` [Example 18, 1-((1-(3-chlorophenyl)-3-(trifluoromethyl)-1H-pyrazol-5-yl)methyl)-3-(5-fluoropyridin-3-yl)urea]: 39 nM.
In the case of `Cc1ncc(NC(=O)NCc2cc(C(F)(F)F)nn2-c2cccc(Cl)c2)cn1` [Example 19, 1-((1-(3-chlorophenyl)-3-(trifluoromethyl)-1H-pyrazol-5-yl)methyl)-3-(2-methylpyrimidin-5-yl)urea], the inhibition at 5 µM came to 45%.
With `CS(=O)(=O)CCc1ccc(NC(=O)NCc2cc(C(F)(F)F)nn2-c2cccc(Cl)c2)cn1` [Example 21, 1-((1-(3-chlorophenyl)-3-(trifluoromethyl)-1H-pyrazol-5-yl)methyl)-3-(6-(2-(methylsulfonyl)ethyl)pyridin-3-yl)urea], the Ki was found to be 43 nM.
Turning to `CC(C)(C)c1cc(CNC(=O)Nc2cnc(CCS(C)(=O)=O)c(F)c2)n(-c2cccc(Cl)c2)n1` [Example 22, 1-((3-tert-butyl-1-(3-chlorophenyl)-1H-pyrazol-5-yl)methyl)-3-(5-fluoro-6-(2-(methylsulfonyl)ethyl)pyridin-3-yl)urea], the inhibition constant Ki worked out at 28 nM.
For `CS(=O)(=O)CCc1ncc(NC(=O)NCc2cc(C(F)(F)F)nn2-c2cccc(Cl)c2)cc1F` [Example 23, 1-((1-(3-chlorophenyl)-3-(trifluoromethyl)-1H-pyrazol-5-yl)methyl)-3-(5-fluoro-6-(2-(methylsulfonyl)ethyl)pyridin-3-yl)urea], the inhibition constant (Ki) came out at 29 nM.
Still for that read-out and setting: next, `CS(=O)(=O)CCc1ncc(NC(=O)NCc2cc(C3CC3)nn2-c2cccc(Cl)c2)cc1F` [Example 24, 1-((1-(3-chlorophenyl)-3-cyclopropyl-1H-pyrazol-5-yl)methyl)-3-(5-fluoro-6-(2-(methylsulfonyl)ethyl)pyridin-3-yl)urea]: 46 nM.
Same read-out and setting: in the case of `CC(C)(C)c1cc(CNC(=O)Nc2ccc(C(N)=O)nc2)n(-c2cccc(Cl)c2)n1` [Example 25, 5-(3-((3-tert-butyl-1-(3-chlorophenyl)-1H-pyrazol-5-yl)methyl)ureido)picolinamide] it was 31 nM.
In the case of `NC(=O)c1ccc(NC(=O)NCc2cc(C(F)(F)F)nn2-c2cccc(Cl)c2)cn1` [Example 26, 5-(3-((1-(3-chlorophenyl)-3-(trifluoromethyl)-1H-pyrazol-5-yl)methyl)ureido)picolinamide], the inhibition at 5 µM was determined as 44%.
On to `CC(C(=O)NCc1cc(C(F)(F)F)nn1-c1cccc(Cl)c1)c1ccc(CNS(C)(=O)=O)nc1` (centres unmarked) [Example 27, N-((1-(3-chlorophenyl)-3-(trifluoromethyl)-1H-pyrazol-5-yl)methyl)-2-(6-(methylsulfonamidomethyl)pyridin-3-yl)propanamide], for which the inhibition constant (Ki) is 61 nM.
